ChEMBL document CHEMBL1147219, “Hyperatomarin, an antibacterial prenylated phloroglucinol from Hypericumatomarium ssp. degenii” (2003)
≈ marks a conversion by molar mass, not a printed value.

Experiments:
Type in all cases: functional
[1] = system: Staphylococcus aureus; assay: Antibacterial activity against Staphylococcus aureus ATCC 25923 after 24 hrs by agar dilution method; conditions: ATCC 25923, 24 h
[2] = system: Bacillus; assay: Antibacterial activity against Bacillus IP 5832 after 24 hrs by agar dilution method
[3] = system: Bacillus subtilis; assay: Antibacterial activity against Bacillus subtilis ATCC 6633 after 24 hrs by agar dilution method; conditions: ATCC 6633, 24 h
[4] = system: Micrococcus luteus; assay: Antibacterial activity against Micrococcus luteus ATCC 4698 after 24 hrs by agar dilution method; conditions: ATCC 4698, 24 h

MIC [1]	MIC [2]	MIC [3]	MIC [4]	SMILES
0.2 µg/mL (≈ 0.273 µM)	0.39 µg/mL (≈ 0.531 µM)	0.39 µg/mL (≈ 0.531 µM)	0.2 µg/mL (≈ 0.273 µM)	CC[C@H]1OC(=O)[C@H](C)[C@@H](O[C@H]2C[C@@](C)(OC)[C@@H](O)[C@H](C)O2)[C@H](C)[C@@H](O[C@@H]2O[C@H](C)C[C@H](N(C)C)[C@H]2O)[C@](C)(O)C[C@@H](C)C(=O)[C@H](C)[C@@H](O)[C@]1(C)O [ERYTHROMYCIN]
1.56 µg/mL (≈ 3.89 µM)	1.56 µg/mL (≈ 3.89 µM)	3.12 µg/mL (≈ 7.79 µM)	1.56 µg/mL (≈ 3.89 µM)	CC(C)=CCC[C@@]1(C)[C@H](CC=C(C)C)C[C@@H]2C(=O)C(C(=O)C(C)C)=C(O)[C@H]1C2=O [HYPERATOMARIN]
